In PubChem BioAssay AID330 (DTP/NCI, 2004):
“And” between values parts separate entries of the source, which are not always exact repeats. Identical values can stand only once. Toxic doses and inconclusive results are not listed. Rule for the calls: active = survival T/C of 150% or more; inactive = T/C below 125% in these data.

Test system: P388 leukemia ip, CD2F1 mice, survival T/C
Assay: NCI In Vivo Anticancer Drug Screen. Data for tumor model P388 Leukemia (intraperitoneal) in CD2F1 (CDF1) mice
Settings: endpoint: median survival time, higher = longer survival
In short: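 Mice carrying the transplanted tumor received test compound or vehicle. Survival was recorded in each group, and the value is the treated-group measurement divided by that of the vehicle-treated control group.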

[1] = dose: 50.0 mg/kg/injection, schedule: Q01DX009 (ip), vehicle: saline with Tween-80
[2] = dose: 100.0 mg/kg/injection, schedule: Q01DX009 (ip), vehicle: saline with Tween-80
[3] = dose: 200.0 mg/kg/injection, schedule: Q01DX009 (ip), vehicle: saline with Tween-80
[4] = dose: 50.0 mg/kg/injection, schedule: Q01DX005 (ip), vehicle: Klucel (hydroxypropylcellulose) (HPC)
[5] = dose: 100.0 mg/kg/injection, schedule: Q01DX005 (ip), vehicle: Klucel (hydroxypropylcellulose) (HPC)
[6] = dose: 200.0 mg/kg/injection, schedule: Q01DX005 (ip), vehicle: Klucel (hydroxypropylcellulose) (HPC)
[7] = dose: 12.5 mg/kg/injection, schedule: Q04DX003 (ip), vehicle: saline with Tween-80
[8] = dose: 25.0 mg/kg/injection, schedule: Q04DX003 (ip), vehicle: saline with Tween-80
[9] = dose: 50.0 mg/kg/injection, schedule: Q01DX005 (ip), vehicle: saline with Tween-80
[10] = dose: 100.0 mg/kg/injection, schedule: Q01DX005 (ip), vehicle: saline with Tween-80
[11] = dose: 200.0 mg/kg/injection, schedule: Q01DX005 (ip), vehicle: saline with Tween-80
[12] = dose: 12.5 mg/kg/injection, schedule: Q01DX009 (ip), vehicle: Klucel (hydroxypropylcellulose) (HPC)
[13] = dose: 25.0 mg/kg/injection, schedule: Q01DX009 (ip), vehicle: Klucel (hydroxypropylcellulose) (HPC)
[14] = dose: 50.0 mg/kg/injection, schedule: Q01DX009 (ip), vehicle: Klucel (hydroxypropylcellulose) (HPC)
[15] = dose: 100.0 mg/kg/injection, schedule: Q01DX009 (ip), vehicle: Klucel (hydroxypropylcellulose) (HPC)

Measured: T/C

CNC(=O)OCc1cc(C)cc(C)c1-c1ccco1
inactive: [1] 101 % of control | [2] 98 % of control | [3] 95 % of control

C(=NCCC[Si]12OCCN(CCO1)CCO2)c1ccccc1
inactive: [4] 105 % of control | [5] 98 % of control | [6] 102 % of control

CC(=N/NC(=S)NCCN1CCCC1)/C(C)=N\NC(=S)NCCN1CCCC1
inactive: dose: 6.25 mg/kg/injection, schedule: Q04DX003 (ip), vehicle: saline with Tween-80 117 % of control | [7] 98 % of control | [8] 100 % of control

COc1ccc(C2=Nn3c(nc(N)nc3=N)SC2)cc1
inactive: dose: 25.0 mg/kg/injection, schedule: Q01DX005 (ip), vehicle: saline with Tween-80 113 % of control | [9] 100 % of control | [10] 96 % of control

C=CC1CCCCC1=O (stereo unspecified)
inactive: [9] 110 % of control | [10] 111 % of control | [11] 111 % of control

CCOC(=O)Nc1cc(NC/C(=N/O)c2ccc(C(F)(F)F)cc2)c([N+](=O)[O-])c(N)n1
inactive: dose: 50.0 mg/kg/injection, schedule: Q01DX001 (ip), vehicle: saline with Tween-80 94 % of control | dose: 100.0 mg/kg/injection, schedule: Q01DX001 (ip), vehicle: saline with Tween-80 96 % of control

NC(=O)N(CCO)/N=C/C=C/c1ccc([N+](=O)[O-])o1
inactive: [4] 106 % of control | [5] 115 % of control | [6] 108 % of control

CCCCN1C(=O)/C(=C/c2ccco2)SC1=S
inactive: [1] 101 % of control | [2] 104 % of control | [3] 102 % of control

COc1ccc(-c2c3c(c(O)c4cc5c(cc24)OCO5)COC3=O)cc1OC
inactive: [12] 95 % of control | [13] 104 % of control | [14] 99 % of control | [15] 105 % of control

COc1cccc2sc(-c3ccccc3)cc(=O)c12
inactive: [4] 93 % of control | [5] 93 % of control | [6] 96 % of control

c1ccc2c(NCCCCCCCCCCNc3c4ccccc4nc4ccccc34)c3ccccc3nc2c1
inactive: dose: 0.62 mg/kg/injection, schedule: Q## X009 (ip), vehicle: lactic acid 104 % of control | dose: 1.25 mg/kg/injection, schedule: Q## X009 (ip), vehicle: lactic acid 118 % of control | dose: 5.0 mg/kg/injection, schedule: Q## X009 (ip), vehicle: lactic acid 120 % of control | dose: 10.0 mg/kg/injection, schedule: Q## X009 (ip), vehicle: lactic acid 90 % of control

N=C(N)c1ccc(N=Nc2c(O)ccc3cc4c(N=Nc5ccc(C(=N)N)cc5)c(O)ccc4cc23)cc1
inactive: [4] 110 % of control | [5] 111 % of control | [6] 110 % of control

Fc1ccc(NC(=S)SCc2ccc(Cl)c(Cl)c2)c(F)c1
inactive: dose: 50.0 mg/kg/injection, schedule: Q01DX009 (ip), vehicle: suspension in saline 93 % of control | dose: 100.0 mg/kg/injection, schedule: Q01DX009 (ip), vehicle: suspension in saline 100 % of control | dose: 200.0 mg/kg/injection, schedule: Q01DX009 (ip), vehicle: suspension in saline 88 % of control

Cc1[nH]nc2c1NC(=O)OCC2
inactive: [9] 101 % of control | [10] 101 % of control | [11] 101 % of control

C[N+]1(C)CCN(Cc2ccc3c(c2)CCc2ccccc2N3)CC1
inactive: dose: 3.75 mg/kg/injection, schedule: Q01DX005 (ip), vehicle: saline 104 % of control | dose: 7.5 mg/kg/injection, schedule: Q01DX005 (ip), vehicle: saline 96 % of control

Cc1cccc(NC(N)=S)n1
inactive: dose: 12.5 mg/kg/injection, schedule: Q01DX009 (ip), vehicle: other 108 % of control | dose: 25.0 mg/kg/injection, schedule: Q01DX009 (ip), vehicle: other 98 % of control | dose: 50.0 mg/kg/injection, schedule: Q01DX009 (ip), vehicle: other 115 % of control | dose: 100.0 mg/kg/injection, schedule: Q01DX009 (ip), vehicle: other 119 % of control

CCCCCCCCCCCCCCCCCC(=O)O.[Co]
inactive: [1] 87 % of control and 95 % of control and 97 % of control | [2] 100 % of control and 103 % of control and 97 % of control | [3] 92 % of control

NNC(=O)CCCCl
inactive: dose: 60.0 mg/kg/injection, schedule: Q01DX005 (ip), vehicle: saline 111 % of control | dose: 120.0 mg/kg/injection, schedule: Q01DX005 (ip), vehicle: saline 110 % of control

Fc1c2ccccc2c2ccc3cccc4ccc1c2c43
inactive: dose: 50.0 mg/kg/injection, schedule: Q04DX002 (ip), vehicle: saline 103 % of control and 104 % of control | dose: 100.0 mg/kg/injection, schedule: Q04DX002 (ip), vehicle: saline with Tween-80 117 % of control | dose: 100.0 mg/kg/injection, schedule: Q04DX002 (ip), vehicle: saline 100 % of control and 110 % of control | dose: 200.0 mg/kg/injection, schedule: Q04DX002 (ip), vehicle: saline 100 % of control and 113 % of control | dose: 400.0 mg/kg/injection, schedule: Q04DX002 (ip), vehicle: saline 103 % of control

O=[N+]([O-])c1ccc(N/N=C/c2ccc(Cl)cc2)nc1
inactive: dose: 6.25 mg/kg/injection, schedule: Q01DX009 (ip), vehicle: Klucel (hydroxypropylcellulose) (HPC) 87 % of control | [12] 89 % of control | [13] 91 % of control | [14] 91 % of control | [15] 98 % of control | dose: 200.0 mg/kg/injection, schedule: Q01DX009 (ip), vehicle: Klucel (hydroxypropylcellulose) (HPC) 105 % of control and 89 % of control | [3] 91 % of control and 93 % of control | dose: 400.0 mg/kg/injection, schedule: Q01DX009 (ip), vehicle: saline with Tween-80 112 % of control

CCOC(=O)c1ccc(NC(=NC(C)(C)C)C(C)C)cc1
inactive: [1] 96 % of control | [2] 101 % of control | [3] 91 % of control

C/C(=N\NC(N)=S)c1cccc(/C(C)=N/NC(N)=S)n1
inactive: [7] 91 % of control | [8] 93 % of control | dose: 50.0 mg/kg/injection, schedule: Q04DX003 (ip), vehicle: saline with Tween-80 89 % of control

CCO/C=C1\N=C(C(O)(c2ccc(Cl)cc2)c2ccc(Cl)cc2)OC1=O
inactive: dose: 60.0 mg/kg/injection, schedule: Q01DX005 (ip), vehicle: Klucel (hydroxypropylcellulose) (HPC) 95 % of control | dose: 120.0 mg/kg/injection, schedule: Q01DX005 (ip), vehicle: Klucel (hydroxypropylcellulose) (HPC) 92 % of control | dose: 240.0 mg/kg/injection, schedule: Q01DX005 (ip), vehicle: Klucel (hydroxypropylcellulose) (HPC) 98 % of control

O=C1C(N2CC2)=C(N2CC2)C(=O)C(N2CC2)=C1N1CC1
inactive: dose: 1.8 micrograms/kg/injection, schedule: Q01DX009 (ip), vehicle: saline 110 % of control | dose: 2.7 micrograms/kg/injection, schedule: Q01DX009 (ip), vehicle: saline 115 % of control | dose: 4.0 micrograms/kg/injection, schedule: Q01DX009 (ip), vehicle: saline 112 % of control

O=C(O)c1cccc2c1C(=O)N(c1ccc3c(c1)Cc1ccccc1-3)C2=O
inactive: dose: 25.0 mg/kg/injection, schedule: Q01DX005 (ip), vehicle: Klucel (hydroxypropylcellulose) (HPC) 97 % of control | [4] 98 % of control | [5] 95 % of control | [6] 96 % of control

O=C1CCC2CCC1N2 (stereo unspecified)
inactive: dose: 50.0 mg/kg/injection, schedule: Q01DX005 (ip), vehicle: saline 100 % of control | dose: 100.0 mg/kg/injection, schedule: Q01DX005 (ip), vehicle: saline 100 % of control | dose: 200.0 mg/kg/injection, schedule: Q01DX005 (ip), vehicle: saline 100 % of control
